Consider six compounds from patent EP0081312A2, “Antibiotics, their preparation and use” (BEECHAM GROUP PLC, priority 1981, dated 1983).

Test systems include Escherichia coli JT39; Proteus mirabilis C977; Escherichia coli ESS; Proteus vulgaris WO91; Bacillus Subtilis A; Escherichia coli 0111; Citrobacter freundii Ei; Pseudomonas aeruginosa A; Klebsiella aerogenes A; Enterobacter cloacae N1; Serratia marcescens US20.
What all share (assay): MIC, concentration required to inhibit growth of bacteria
What all share (assay type): cell-based

A further assay deals with Shigella sonnei MB 11967. The following applies: MB11967.
The next assay deals with Proteus morganii 1580. To be noted: Morganella morganii.
The subject of assay [1] is Staphylococcus aureus Russell.
For a further assay, the system named is Streptococcus faecalis I. To be noted: Enterococcus faecalis.
The subject of assay [2] is Staphylococcus aureux Oxford.
In assay [3] the test system is Staphylococcus aureus 1517.
Assay [4] deals with Salmonella typhirmurium CT10.
In a further assay the test system is Proteus rettgeri WM16. To be noted: Providencia rettgeri.
Assay [5] concerns Streptococcus pyogenes CN10.
The subject of assay [6] is Streptococcus pneumoniae CN33.
Setting [7] is: Proteus morganii 1580, read-out: MIC.
Where [8] appears, read: Staphylococcus aureus Russell, read-out: MIC.
Where [9] appears, read: Streptococcus faecalis I, read-out: MIC.
Where [10] appears, read: Staphylococcus aureux Oxford, read-out: MIC.
Setting [11] is: Bacillus Subtilis A, read-out: MIC.
Setting [12] is: Citrobacter freundii Ei, read-out: MIC.
Setting [13] is: Pseudomonas aeruginosa A, read-out: MIC.
Where [14] appears, read: Klebsiella aerogenes A, read-out: MIC.
[15] abbreviates: Proteus rettgeri WM16, read-out: MIC.

Values after ≈ are worked out from the molar mass of the structure shown. Like-named read-outs stand apart in the source and are kept apart here. Some results are limits rather than exact numbers.

What is called MIC is the least concentration at which growth counts as inhibited. `CC(O)C1C(=O)N2C(C(=O)[O-])=C(S/C=C\C(N)=O)CC12.[Na+]` (stereo not shown) [Example 6, Sodium 3-[Z-2-carbamoylethenylthio]-6-[1-hydroxyethyl]-7-oxo-1-azabicyclo[3.2.0]hept-2-ene-2-carboxylate]: the minimum inhibitory concentration (MIC) in the assay with Shigella sonnei MB 11967 worked out at 12.5 µg/mL; against Escherichia coli JT39 it was 12.5 µg/mL; with Proteus mirabilis C977, 50 µg/mL; in the assay with Escherichia coli ESS, 3.1 µg/mL; against Proteus morganii 1580 (1580), 50 µg/mL; in [1] (Staphylococcus aureus) it was 3.1 µg/mL. In addition, the MIC against Proteus vulgaris WO91 was 25 µg/mL; against Streptococcus faecalis I, 50 µg/mL; in assay [2] (Staphylococcus) it was 1.6 µg/mL; against Bacillus Subtilis A (Bacillus subtilis), 1.6 µg/mL; in assay [3], 100 µg/mL; against Escherichia coli 0111, 6.2 µg/mL. Also, the MIC against Citrobacter freundii Ei (Citrobacter freundii) is 50 µg/mL; in [4], 6.2 µg/mL; in the assay with Pseudomonas aeruginosa A (Pseudomonas aeruginosa) it was greater than 100 µg/mL; with Klebsiella aerogenes A (Klebsiella aerogenes) it was 6.2 µg/mL; in the assay with Enterobacter cloacae N1, 25 µg/mL; against Proteus rettgeri WM16 (WM16), 50 µg/mL. The MIC against Serratia marcescens US20 amounted to 12.5 µg/mL; in assay [5], 3.1 µg/mL.
Regarding `C[C@H](O)[C@@H]1C(=O)N2C(C(=O)[O-])=C(S/C=C\C(=O)NCc3ccccc3)C[C@H]12.[Na+]` [Example 2, Sodium (5R,6R)-3-[(Z)-2 benzylaminocarbonylethenylthio]-6-[(S)-1-hydroxyethyl]-7-oxo-1-azabicyclo[3.2.0]hept-2-ene-2-carboxylate], the minimal inhibitory concentration (MIC) was no more than 0.1 µg/mL in the assay with Shigella sonnei MB 11967; 0.2 µg/mL against Escherichia coli JT39; no more than 0.1 µg/mL against Proteus mirabilis C977; no more than 0.1 µg/mL in the assay on Escherichia coli ESS; 0.8 µg/mL in the assay with Proteus morganii 1580 (1580); no more than 0.1 µg/mL in assay [1] (Staphylococcus aureus). For the same compound, the MIC against Proteus vulgaris WO91 was 0.2 µg/mL; in the assay on Streptococcus faecalis I, 0.2 µg/mL; in assay [2] (Staphylococcus), no more than 0.1 µg/mL; in the assay on Bacillus Subtilis A (Bacillus subtilis) it was no more than 0.1 µg/mL; in assay [3], 1.6 µg/mL; against Escherichia coli 0111 it was 0.2 µg/mL. Moreover, the minimal inhibitory concentration (MIC) against Citrobacter freundii Ei (Citrobacter freundii) is no more than 0.1 µg/mL; in [4], no more than 0.1 µg/mL; against Pseudomonas aeruginosa A (Pseudomonas aeruginosa) it was 25 µg/mL; against Klebsiella aerogenes A (Klebsiella aerogenes) it was 0.2 µg/mL; against Enterobacter cloacae N1, 0.2 µg/mL; in the assay with Proteus rettgeri WM16 (WM16), 0.4 µg/mL. Further, the MIC in the assay on Serratia marcescens US20 was 0.4 µg/mL; in assay [5], no more than 0.1 µg/mL.
Regarding `C[C@@H](O)[C@H]1C(=O)N2C(C(=O)O)=C(S/C=C\C(=O)NCc3ccccc3)C[C@H]12` [Example 4, Sodium (5R,6S)-3-[(Z)-2 benzylaminocarbonylethenylthio]-6-[(R)-1-hydroxyethyl]-7-oxo-1-azabicyclo[3.2.0]hept-2-ene-2-carboxylate.], the minimal inhibitory concentration (MIC) against Shigella sonnei MB 11967 was 0.4 µg/mL; in the assay on Escherichia coli JT39 (read-out: MIC), no more than 0.1 µg/mL; with Proteus mirabilis C977 (read-out: MIC), 0.8 µg/mL; against Escherichia coli ESS, no more than 0.1 µg/mL; in the assay on Proteus morganii 1580 (setting [7]) it was 1.6 µg/mL; in assay [1] (setting [8]) it was no more than 0.1 µg/mL. The minimal inhibitory concentration (MIC) in the assay with Proteus vulgaris WO91 (read-out: MIC) is 0.4 µg/mL; in the assay with Streptococcus faecalis I (setting [9]), 0.4 µg/mL; in assay [2] (setting [10]), no more than 0.1 µg/mL; in the assay with Bacillus Subtilis A (setting [11]) it was no more than 0.1 µg/mL; in [3] (read-out: MIC) it was 6.2 µg/mL; in the assay on Escherichia coli 0111 it was 0.2 µg/mL. Besides, the MIC in the assay on Citrobacter freundii Ei (setting [12]) is 0.8 µg/mL; in assay [4], 0.2 µg/mL; with Pseudomonas aeruginosa A (setting [13]), 50 µg/mL; with Klebsiella aerogenes A (setting [14]), no more than 0.1 µg/mL; in [6] (read-out: MIC), no more than 0.1 µg/mL; with Enterobacter cloacae N1 (read-out: MIC) it was 1.6 µg/mL. The minimum inhibitory concentration (MIC) in the assay with Proteus rettgeri WM16 (setting [15]) was 3.1 µg/mL; in the assay on Serratia marcescens US20 (read-out: MIC) it was 0.8 µg/mL; in [5] (read-out: MIC), no more than 0.1 µg/mL.
In the case of `CC(O)C1C(=O)N2C(C(=O)[O-])=C(S/C=C/C(N)=O)CC12.[Na+]` (stereo not shown) [Example 5, Sodium 3-[E-2-carbamoylethenylthio]-6-[1-hydroxyethyl]-7-oxo-1-azabicyclo[3.2.0]hept-2-ene-2-carboxylate], the MIC against Shigella sonnei MB 11967 was found to be 1.6 µg/mL; against Escherichia coli JT39 it was 0.8 µg/mL; with Proteus mirabilis C977, 3.1 µg/mL; in the assay on Escherichia coli ESS, 0.4 µg/mL; in the assay with Proteus morganii 1580 (1580), 6.2 µg/mL; in assay [1] (Staphylococcus aureus), 1.6 µg/mL. The MIC worked out at 6.2 µg/mL in the assay on Proteus vulgaris WO91; 6.2 µg/mL with Streptococcus faecalis I; 0.8 µg/mL in assay [2] (Staphylococcus); 0.2 µg/mL against Bacillus Subtilis A (Bacillus subtilis); 50 µg/mL in [3]; 0.4 µg/mL against Escherichia coli 0111. The MIC with Citrobacter freundii Ei (Citrobacter freundii) is 1.6 µg/mL; in assay [4], 1.6 µg/mL; in the assay on Pseudomonas aeruginosa A (Pseudomonas aeruginosa), greater than 100 µg/mL; against Klebsiella aerogenes A (Klebsiella aerogenes) it was 1.6 µg/mL; in [6], no more than 0.1 µg/mL; with Enterobacter cloacae N1 it was 1.6 µg/mL. The MIC in the assay on Proteus rettgeri WM16 (WM16) turned out to be 6.2 µg/mL; in the assay with Serratia marcescens US20, 3.1 µg/mL; in [5], 0.2 µg/mL.
`C[C@@H](OC=O)[C@H]1C(=O)N2C(C(=O)[O-])=C(S/C=C\C(=O)NCc3ccccc3)C[C@H]12.[Na+]` [Example 3, Sodium (5R,6S)-3-[(Z)-2-benzylaminocarbonylethenylthio]-6-[(R)-1-formyloxyethyl]-7-oxo-1-azabicyclo[3.2.0]hept-2-ene-2-carboxylate]: the MIC with Shigella sonnei MB 11967 was determined as 1.6 µg/mL; in the assay with Escherichia coli JT39, 0.4 µg/mL; against Proteus mirabilis C977 it was 1.6 µg/mL; in the assay with Escherichia coli ESS it was 0.4 µg/mL; in the assay on Proteus morganii 1580 (1580) it was 6.2 µg/mL; in the assay with Proteus vulgaris WO91, 0.4 µg/mL. For the same compound, the minimal inhibitory concentration (MIC) was 0.8 µg/mL in the assay on Streptococcus faecalis I; no more than 0.1 µg/mL in assay [2] (Staphylococcus); no more than 0.1 µg/mL in the assay on Bacillus Subtilis A (Bacillus subtilis); 3.1 µg/mL in assay [3]; 0.8 µg/mL with Escherichia coli 0111; 3.1 µg/mL with Citrobacter freundii Ei (Citrobacter freundii). In addition, the minimum inhibitory concentration (MIC) in assay [4] is 0.4 µg/mL; against Pseudomonas aeruginosa A (Pseudomonas aeruginosa), 50 µg/mL; against Klebsiella aerogenes A (Klebsiella aerogenes) it was 0.4 µg/mL; in assay [6] it was 0.8 µg/mL; against Enterobacter cloacae N1, 3.1 µg/mL; with Proteus rettgeri WM16 (WM16) it was 3.1 µg/mL. The MIC came to 3.1 µg/mL against Serratia marcescens US20 and 0.8 µg/mL in assay [5].
Take `C[C@H](O)[C@@H]1C(=O)N2C(C(=O)O)=C(S/C=C\C(=O)N(C(=O)NC3CCCCC3)C3CCCCC3)C[C@H]12` [Example 1]: the MIC in the assay with Shigella sonnei MB 11967 is 25 µg/mL (≈ 49.4 µM); with Escherichia coli JT39 (read-out: MIC), 50 µg/mL (≈ 98.9 µM); with Proteus mirabilis C977 (read-out: MIC) it was 50 µg/mL (≈ 98.9 µM); against Escherichia coli ESS, 1.6 µg/mL (≈ 3.16 µM); with Proteus morganii 1580 (setting [7]), 25 µg/mL (≈ 49.4 µM); in [1] (setting [8]), 0.8 µg/mL (≈ 1.58 µM). Further, the minimum inhibitory concentration (MIC) in the assay on Proteus vulgaris WO91 (read-out: MIC) was 25 µg/mL (≈ 49.4 µM); in the assay on Streptococcus faecalis I (setting [9]), 0.8 µg/mL (≈ 1.58 µM); in assay [2] (setting [10]), 0.4 µg/mL (≈ 0.791 µM); with Bacillus Subtilis A (setting [11]) it was no more than 0.1 µg/mL; in [3] (read-out: MIC), 6.2 µg/mL (≈ 12.3 µM); against Escherichia coli 0111, 25 µg/mL (≈ 49.4 µM). For the same compound, the minimum inhibitory concentration (MIC) with Citrobacter freundii Ei (setting [12]) was 12.5 µg/mL (≈ 24.7 µM); in assay [4], 25 µg/mL (≈ 49.4 µM); in the assay on Pseudomonas aeruginosa A (setting [13]) it was greater than 100 µg/mL; with Klebsiella aerogenes A (setting [14]), 25 µg/mL (≈ 49.4 µM); in the assay with Enterobacter cloacae N1 (read-out: MIC), 50 µg/mL (≈ 98.9 µM); in the assay with Proteus rettgeri WM16 (setting [15]), 50 µg/mL (≈ 98.9 µM). Besides, the MIC in the assay with Serratia marcescens US20 (read-out: MIC) amounted to 25 µg/mL (≈ 49.4 µM).
